Laboratory results taken from patent US20240189289A1, “INHIBITORS OF EPHB3 SIGNALING” (The Brigham and Women`s Hospital, Inc., priority 2021, published 2024).
Entries after “also recorded” stand apart in the source; their conditions may differ.

Columns and labels:
[1] = Aqueous solubility; assay type: physicochemical; conditions: aqueous solution, aqueous buffer; oxalate salt, pH 7.4; read-out: aqueous solubility of the oxalate salt
[2] = test system: astrocytes; assay: Cytotoxicity (LDH release) and apoptosis (caspase-3/7) assay; assay type: cell-based
Protocol: Cytotoxicity and apoptosis assay. Compound cytotoxicity was inferred by quantifying Lactate Deshidrogenase (LDH) release to the cells supernatants after 24 h using the CytoTox 96© Non-Radioactive Cytotoxicity Assay, (Promega #G1780) following by manufacturer's protocol. […] Briefly cells were washed with 0.5% BSA, 2 mM EDTAin 1×PBS and incubated with surface antibodies and a live/dead cell marker on ice for 30 minutes. After, cells were washed and following staining for Caspase-3/7 according the manufacturer's instructions (Invitrogen, #C10427).

[3] = test system: N2A neuronal cells; assay: Neurotoxicity assay of astrocyte-conditioned medium (LDH release); assay type: cell-based, mouse; conditions: ACM from astrocytes pre-treated with compound, LDH release after 24 h
Protocol: Generation of astrocyte-conditioned medium (ACM). […] After 24 h, cells were extensively washed with 1×PBS, and incubated with fresh astrocyte complete medium for 48 h. Supernatants were spun down and kept at −80° C. until tested in migration and neurotoxicity assays.
Neurotoxicity Assay. N2A neuronal cells (#CCL-131, ATCC) were plated and pre-activated with 100 ng/mL mouse IFNγ (#485-MI-100; R&D Systems) for 24 h.
Thereafter, after extensive washing with 1×PBS, medium was replaced with ACM and after 24 h the supernatant was harvested for cytotoxicity evaluation by measuring LDH release with CytoTox 96 nonradioactive cytotoxicity assay kit (#G1780, Promega) following the manufacturer's protocol.

[4] = test system: EAE in C57BL/6 mice; assay: EAE in C57BL/6 mice (MOG35-55); assay type: in vivo, mouse
Protocol: EAE. EAE was induced in 8-10 week old female C57BL/6 or NOD by subcutaneous immunization with 150 μg MOG35-55 (#110582, Genemed Synthesis) emulsified in 200 μL of complete Freund's adjuvant per mouse, followed by administration of 200 ng pertussis toxin (#180, List biological Laboratories) on days 0 and 2 as described. […] EAE was assessed as follows: 0, no signs of disease; 1, loss of tone in the tail; 2, hind limb paresis; 3, hind limb paralysis; 4, tetraplegia; 5, moribund.
Mononuclear cells. Mononuclear cells, including astrocytes, monocytes, and microglia, were isolated from the CNS as described. Briefly, mice were perfused with 1×PBS and the isolated brain and spinal cords were homogenized with a razor blade, digested in 0.66 mg/mL papain (#P4762, Sigma-Aldrich) for 15 minutes at 37° C. and subsequently 15 minutes with 0.66 mg/mL Collagenase D (#11088858001, Roche) and 8 U/mL DNase I (#90083, Thermo Fisher Scientific). Samples where then homogenized and filtered through a 70 µm cell strainer and resuspended in 30% Percoll TM solution (#17-5445-01, GE Healthcare) overlayed by 1×PBS for myelin removal. Isolated mononuclear CNS cells were washed with 1×PBS and stained with fluorochrome-conjugated antibody to FITC anti-CD11b (Cat #11-0112-85, eBioscience), APC anti-CD45 (Cat #17-0451-83, eBioscience), BV421 anti-Ly-6C (Cat #128031, Biolegend), PE anti-mouse CD45R/B220 (Cat #553089, BD Biosciences), PE anti-CD140a (Cat #12-1401-81, eBioscience), PE anti-CD105 (Cat #12-1051-82, eBioscience), PE anti-04 (Cat #FAB1326P, R&D), PE anti-Ly-6G (Cat #127608, BioLegend) and PE anti-mouse TER-119 (Cat #116207, BioLegend). Microglia were sorted as CD11b^+CD45^lo Ly6C1^lo, inflammatory monocytes were considered as CD45^hiCD11b^+Ly6C1^hi. Astrocytes were sorted as CD11b^loCD45^lo Ly6C^loCD105^lo CD140a^lo CD11b^loTer119^loCD19^lo after the exclusion of erythrocytes, lymphocytes, microglia, oligodendrocytes, and monocytes. FACSAria IIU (BD Biosciences) was used for cell sorting.
Analysis of T cells. For T-cell flow cytometry analysis, CNS single-cell suspensions or splenocytes were stimulated with 50 ng/mL phorbol 12-myristate 13-acetate (PMA, #P1585, Sigma-Aldrich), 1 μM ionomycin (#I9657, Sigma-Aldrich), GolgiSTOP and (#554724, BD Biosciences, 1:1500) GolgiPLUG (#555029, BD Biosciences, 1:1500) in RPMI 1640 medium (#11875119, Life Technologies) containing 10% FBS (#10438026, GIBCO), penicillin/streptomycin (#15140122, GIBCO, 1:100) for 4 h at 37° C. in a 5% CO2 incubator. Following stimulation, T cells were stained with antibodies against surface markers, and thereafter fixed and stained with antibody against intracellular target protein with an intracellular antibody labeling kit following its instructions (#00-5523, eBioscience).
RNA-sequencing. Sorted astrocytes or microglia were re-suspended in extraction buffer of Picopure RNA isolation kit (KIT0204, Thermo Fisher) and after 30 min incubation at 42° C. samples were extracted following manufacturer's instructions with on-column DNase I digestion (QIAGEN, #79254). RNA was suspended in 10 μl of nuclease free water and 5 μl were sent for SMARTseq sequencing by the Broad Technology Labs and the Broad Genomics Platform. Processed RNA-Seq data was filtered, removing genes with low read counts. Read counts were normalized using TMM normalization and CPM (counts per million) were calculated to create a matrix of normalized expression values.
H&E, LFB and silver staining. Transverse sections from lumbar spinal cords of EAE mice at the end of the experiment were fixed in 4% paraformaldehyde, pH 7.4, embedded in paraffin and cut at 10-μm thickness. Sections were stained with Hematoxylin and Eosin, Luxol fast blue, or silver nitrate. Images were acquired by using a Zeiss Axioskop2 plus microscope with AxioCam HRC and AxioVision software and analyzed by using ImageJ software. […]

[5] = test system: primary astrocytes; assay: Seahorse Mito Stress test (oxygen consumption) in primary astrocytes; assay type: cell-based, mouse
Protocol: Oxygen consumption. […] Mito Stress assay was then performed with Seahorse XF Cell Mito Stress Test Kit (Agilent Technologies, #103015-100) following the manufacturer's manual. […] The assay medium (DEMEM with 10 mM Glucose, 1 mM pyruvate and 2 mM glutamine) was used during the assay. The OCR rate was normalized to cell number estimated using CyQUANT cell proliferation assay kit (Invitrogen, #C7026).

[6] = 20 mg/kg from the peak of the disease
[7] = daily intraperitoneal injections

With `O=C(Nc1ccccc1Cl)c1cnc2ccc(C3CCNCC3)cn12` [A38] the solubility [1] was > 10000 µg/mL, the “cytotoxicity (LDH release)” value ([2]; FIG. 1B) was “did not induce cytotoxicity” and the “apoptosis (caspase-3/7 activation)” value ([2]; FIG. 7A) was “did not induce cytotoxicity or apoptosis”. The ACM neurotoxic activity [3] was “decrease in neurotoxicity; also recorded: reduced ACM neurotoxic”, the T-cell response [4, 6] was “did not affect T-cell response” and the “astrocyte and microglial expression of transcriptional modules associated with CNS inflammation and neurodegeneration (RNA-seq)” value [4, 6] was “decreased”. For the same compound, the “axonal loss (histopathology)” value [4, 6] was “reduced demyelination, and axonal loss”, the “demyelination (histopathology)” value [4, 6] was “reduced demyelination” and the “recruitment of Ly6C^Hi pro-inflammatory monocytes to the CNS” value [4, 6] was “reduced the recruitment”. For the same compound, the EAE clinical scores ([4]; 20 mg/kg i.p. twice a day from the peak of the disease) was “ameliorated EAE, as indicated by the reduction in clinical scores”, the “expression of genes related to ROS metabolic processes in astrocytes isolated from treated EAE mice” value ([4]; FIG. 5D) was “a decrease in the expression” and the “therapeutic effects of A38 concomitant with EphB3 knockdown in astrocytes” value ([4]; compared with either intervention alone) was “did not further increase the therapeutic effects”. For the same compound, the “T cell counts in the spleen” value [4, 7] was “unchanged”, the “pro-inflammatory monocytes in the CNS” value [4, 7] was “decrease” and the “course of EAE, preventive treatment” value ([4]; daily intraperitoneal injections from day 3 (priming phase)) was “did not alter the course of EAE”. For the same compound, the “clinical course of EAE, treatment during the chronic phase” value ([4]; daily intraperitoneal injections from day 21) was “ameliorated the clinical course significantly”, the “IFN-γ and IL-17 producing T cells in the CNS” value ([4]; daily intraperitoneal injections, chronic phase) was “significant decrease” and the ATP-linked respiration [5] was “decreased”. The basal mitochondrial respiration [5] was “decreased” and the maximal mitochondrial respiration [5] was “decreased”.
